Measurements published in patent publication US8916593B2, “Alkoxy-substituted 2-aminopyridines as ALK inhibitors” (Pfizer Inc., priority 2010, dated 2014).

What was measured:
cMet enzyme = biological target: T1, cMet enzyme (Homo sapiens, UniProt P08581); test: cMet enzymatic activity assay; format: biochemical; conditions: purified cMet enzyme 7.5 nM, ATP 17 μM (Km)
T1 construct: RTC Lot#032006
Experimental: cMet Enzymatic Activity Assay
Compounds were added at a final concentration of 2% DMSO in half-log dilutions, starting at 20 μM final concentration. The reactions were initiated by addition of 10 μL of peptide/ATP mix to 10 μL enzyme and 5 μL of compound in 384-well plate. […] Substrate and phosphorylated product were separated with an upstream voltage of −2650 V, a downstream voltage of −500V, and a screen pressure of −1.5 psi. The relative peak heights of substrate and product were measured and ratios were calculated using HTS Well Analyzer Software version 5.2.43 from the manufacturer.

ALK enzyme = biological target: T2, ALK enzyme (Homo sapiens, UniProt Q9UM73); test: ALK enzymatic activity assay 1; format: biochemical
T2 construct: purchased Invitrogen PV4185
T2 sequence (Q9UM73 19-1620): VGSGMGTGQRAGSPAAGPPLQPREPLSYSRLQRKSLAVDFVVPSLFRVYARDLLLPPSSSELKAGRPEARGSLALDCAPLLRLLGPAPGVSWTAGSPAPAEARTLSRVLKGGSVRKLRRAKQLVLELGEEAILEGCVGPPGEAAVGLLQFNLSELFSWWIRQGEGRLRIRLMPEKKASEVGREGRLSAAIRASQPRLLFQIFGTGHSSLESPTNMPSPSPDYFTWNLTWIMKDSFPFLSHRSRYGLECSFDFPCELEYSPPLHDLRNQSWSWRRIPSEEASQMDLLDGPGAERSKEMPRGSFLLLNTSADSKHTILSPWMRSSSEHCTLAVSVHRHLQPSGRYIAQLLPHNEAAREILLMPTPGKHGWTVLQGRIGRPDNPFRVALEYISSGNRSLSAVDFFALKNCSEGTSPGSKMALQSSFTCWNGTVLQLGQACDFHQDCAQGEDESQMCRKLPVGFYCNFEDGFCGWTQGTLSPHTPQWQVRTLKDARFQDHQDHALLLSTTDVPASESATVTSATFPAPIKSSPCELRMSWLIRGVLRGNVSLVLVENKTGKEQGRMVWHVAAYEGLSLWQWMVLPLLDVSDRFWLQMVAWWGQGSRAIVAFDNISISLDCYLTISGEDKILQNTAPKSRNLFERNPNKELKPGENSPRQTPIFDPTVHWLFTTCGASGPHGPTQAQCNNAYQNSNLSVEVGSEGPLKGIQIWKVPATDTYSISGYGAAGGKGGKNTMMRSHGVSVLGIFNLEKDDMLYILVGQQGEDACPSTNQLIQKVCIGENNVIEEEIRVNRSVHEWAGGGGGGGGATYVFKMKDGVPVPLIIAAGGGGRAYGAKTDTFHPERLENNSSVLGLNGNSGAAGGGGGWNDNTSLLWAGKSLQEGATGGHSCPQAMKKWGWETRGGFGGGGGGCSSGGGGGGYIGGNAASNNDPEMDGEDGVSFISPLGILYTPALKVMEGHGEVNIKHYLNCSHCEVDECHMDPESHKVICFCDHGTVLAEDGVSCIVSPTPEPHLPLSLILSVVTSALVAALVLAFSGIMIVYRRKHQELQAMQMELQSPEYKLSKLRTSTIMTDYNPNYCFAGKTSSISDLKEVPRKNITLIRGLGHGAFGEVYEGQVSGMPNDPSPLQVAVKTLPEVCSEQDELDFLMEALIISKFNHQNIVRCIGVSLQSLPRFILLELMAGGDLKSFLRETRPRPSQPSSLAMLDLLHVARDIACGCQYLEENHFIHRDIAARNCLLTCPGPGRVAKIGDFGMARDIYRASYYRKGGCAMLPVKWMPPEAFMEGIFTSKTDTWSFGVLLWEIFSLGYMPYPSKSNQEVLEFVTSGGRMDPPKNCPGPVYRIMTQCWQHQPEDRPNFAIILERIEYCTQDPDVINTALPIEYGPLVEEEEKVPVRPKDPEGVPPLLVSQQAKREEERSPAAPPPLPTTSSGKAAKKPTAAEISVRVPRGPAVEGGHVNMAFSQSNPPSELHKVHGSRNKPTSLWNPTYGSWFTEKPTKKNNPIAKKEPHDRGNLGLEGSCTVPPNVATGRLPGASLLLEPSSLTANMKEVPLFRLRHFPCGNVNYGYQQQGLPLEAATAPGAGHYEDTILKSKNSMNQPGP
Experimental: ALK Enzymatic Activity Assay 1
Compounds were added at a final concentration of 1% DMSO in half-log dilutions, starting at 20 μM final concentration. The reactions were initiated by the addition of 10 μL of peptide/ATP mix to 10 μL enzyme and 2 μL of compound in 384-well plate. […] On the 12-sipper chip, substrate and phosphorylated product were separated with an upstream voltage of −2650 V, a downstream voltage of −500 V, and a screen pressure of −1.5 psi. The relative peak heights of substrate and product were measured and ratios were calculated using HTS Well Analyzer Software version 5.2.43 from the manufacturer.

[1] = biological target: T3, human recombinant wild-type ALK kinase domain (amino acids 1093-1411) (Homo sapiens, UniProt Q9UM73); test: ALK enzyme assay 2 (microfluidic mobility shift assay); format: biochemical;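 also: kinase reaction run 1 h at room temperature, conversion quantified by electrophoretic separation of fluorescent peptide substrate from phosphorylated product, about 15-20% turnover without inhibitor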
T3 construct: ALK kinase domain (amino acids 1093-1411); made in house
T3 sequence (Q9UM73 1093-1411): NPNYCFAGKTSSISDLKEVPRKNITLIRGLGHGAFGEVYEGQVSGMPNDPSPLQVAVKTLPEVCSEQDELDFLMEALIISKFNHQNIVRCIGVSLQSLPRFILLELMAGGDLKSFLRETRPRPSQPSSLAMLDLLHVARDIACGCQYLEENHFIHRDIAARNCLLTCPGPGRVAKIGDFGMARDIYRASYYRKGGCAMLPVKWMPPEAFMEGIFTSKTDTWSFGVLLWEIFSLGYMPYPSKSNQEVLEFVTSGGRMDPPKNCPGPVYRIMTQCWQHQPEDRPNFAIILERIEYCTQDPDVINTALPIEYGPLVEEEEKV
Experimental: The reactions were incubated for 1 h at room temperature, stopped by the addition of 0.1 M EDTA, pH 8, and the extent of reactions (˜15-20% conversion with no inhibitor) was determined after electrophoretic separation of the fluorescently labeled peptide substrate and phosphorylated product on an LabChip EZ Reader II (Caliper Life Sciences, Hopkinton, Mass.).

[2] = biological target: EML4-ALK wt v1 in NIH-3T3 cells (Homo sapiens, UniProt Q9UM73)
Sequence of EML4-ALK wt v1 in NIH-3T3 cells (Q9UM73 with tags, fused parts or gaps): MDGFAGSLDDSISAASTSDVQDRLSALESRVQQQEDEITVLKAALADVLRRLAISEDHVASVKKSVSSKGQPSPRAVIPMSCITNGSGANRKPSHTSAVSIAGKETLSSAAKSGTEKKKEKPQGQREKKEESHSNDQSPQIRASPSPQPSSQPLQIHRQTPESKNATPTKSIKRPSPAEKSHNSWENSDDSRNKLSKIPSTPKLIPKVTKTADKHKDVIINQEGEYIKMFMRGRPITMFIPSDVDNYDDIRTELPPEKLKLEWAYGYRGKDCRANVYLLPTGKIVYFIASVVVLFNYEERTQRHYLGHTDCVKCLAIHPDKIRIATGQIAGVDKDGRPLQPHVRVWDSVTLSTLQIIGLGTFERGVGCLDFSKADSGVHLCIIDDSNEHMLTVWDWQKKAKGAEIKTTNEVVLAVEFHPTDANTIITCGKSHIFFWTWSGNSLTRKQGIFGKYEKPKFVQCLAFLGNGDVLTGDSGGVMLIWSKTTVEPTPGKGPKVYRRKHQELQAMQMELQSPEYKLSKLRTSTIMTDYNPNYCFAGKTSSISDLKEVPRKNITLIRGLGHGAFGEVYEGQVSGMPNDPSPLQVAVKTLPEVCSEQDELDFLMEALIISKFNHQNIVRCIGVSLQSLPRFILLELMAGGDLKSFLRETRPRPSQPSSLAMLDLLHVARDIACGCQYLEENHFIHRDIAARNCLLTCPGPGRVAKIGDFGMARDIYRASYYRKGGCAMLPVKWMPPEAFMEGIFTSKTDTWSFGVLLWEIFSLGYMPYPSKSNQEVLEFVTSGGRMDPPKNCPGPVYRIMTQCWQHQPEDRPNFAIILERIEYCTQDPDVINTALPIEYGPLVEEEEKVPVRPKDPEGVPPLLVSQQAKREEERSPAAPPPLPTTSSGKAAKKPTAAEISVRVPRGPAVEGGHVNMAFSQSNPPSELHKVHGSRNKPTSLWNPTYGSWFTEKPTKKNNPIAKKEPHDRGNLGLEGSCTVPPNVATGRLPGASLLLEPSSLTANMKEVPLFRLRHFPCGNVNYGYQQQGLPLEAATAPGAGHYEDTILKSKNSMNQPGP

T1 sequence (P08581 25-1390): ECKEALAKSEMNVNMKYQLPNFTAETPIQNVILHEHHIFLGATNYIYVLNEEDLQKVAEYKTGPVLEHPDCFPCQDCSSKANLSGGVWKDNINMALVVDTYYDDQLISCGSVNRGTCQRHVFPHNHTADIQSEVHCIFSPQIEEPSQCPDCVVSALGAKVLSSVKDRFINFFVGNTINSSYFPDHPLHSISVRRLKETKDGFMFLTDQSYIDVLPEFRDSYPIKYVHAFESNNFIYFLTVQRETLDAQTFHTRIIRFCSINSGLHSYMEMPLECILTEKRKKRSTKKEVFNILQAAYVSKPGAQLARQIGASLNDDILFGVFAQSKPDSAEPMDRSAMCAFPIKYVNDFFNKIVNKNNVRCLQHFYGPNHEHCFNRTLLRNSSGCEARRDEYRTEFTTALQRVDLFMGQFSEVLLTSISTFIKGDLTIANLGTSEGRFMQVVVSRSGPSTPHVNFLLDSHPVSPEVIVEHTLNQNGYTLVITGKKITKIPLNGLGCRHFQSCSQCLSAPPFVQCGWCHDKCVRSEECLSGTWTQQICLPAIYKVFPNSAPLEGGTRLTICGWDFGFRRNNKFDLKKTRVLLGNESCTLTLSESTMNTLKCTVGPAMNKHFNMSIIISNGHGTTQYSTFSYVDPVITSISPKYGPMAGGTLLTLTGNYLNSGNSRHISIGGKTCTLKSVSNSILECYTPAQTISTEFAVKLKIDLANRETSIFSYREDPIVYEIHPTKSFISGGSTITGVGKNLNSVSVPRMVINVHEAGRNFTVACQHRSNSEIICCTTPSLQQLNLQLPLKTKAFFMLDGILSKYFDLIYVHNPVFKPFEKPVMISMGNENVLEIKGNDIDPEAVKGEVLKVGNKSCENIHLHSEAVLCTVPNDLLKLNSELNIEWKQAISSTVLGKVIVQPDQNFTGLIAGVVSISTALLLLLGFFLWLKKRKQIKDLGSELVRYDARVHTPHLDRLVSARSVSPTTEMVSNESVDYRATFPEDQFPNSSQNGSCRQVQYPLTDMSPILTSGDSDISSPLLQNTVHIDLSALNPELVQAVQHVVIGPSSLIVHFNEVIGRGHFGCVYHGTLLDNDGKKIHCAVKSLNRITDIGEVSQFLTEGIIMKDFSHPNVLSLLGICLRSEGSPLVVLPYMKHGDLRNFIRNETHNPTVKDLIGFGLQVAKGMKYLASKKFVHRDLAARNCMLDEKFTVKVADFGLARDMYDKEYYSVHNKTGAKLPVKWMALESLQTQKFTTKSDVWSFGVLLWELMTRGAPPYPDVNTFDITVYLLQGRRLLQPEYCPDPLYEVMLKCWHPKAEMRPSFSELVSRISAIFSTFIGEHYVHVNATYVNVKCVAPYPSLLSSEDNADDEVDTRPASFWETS

| SMILES | IC50 (cMet enzyme) | IC50 (ALK enzyme) | Ki [1] | IC50 [2] |
| --- | --- | --- | --- | --- |
| CC(Oc1cc(-c2ccnn2C)cnc1N)c1cc(F)ccc1-n1nccn1 (centres unmarked) [Example 31, 3-{1-[5-fluoro-2-(2H-1,2,3-triazol-2-yl)phenyl]-ethoxy)-5-(1-methyl-1H-pyrazol-5-yl)pyridin-2-amine] | 13000 nM |  |  |  |
| COc1ccc(F)cc1[C@@H](C)Oc1cc(-c2c(C)ncn2C)cnc1N [Example 25, 5-(1,4-dimethyl-1H-imidazol-5-yl)-3-[(1R)-1-(5-fluoro-2-methoxyphenyl)-ethoxy]pyridin-2-amine] | 13200 nM | 38.2 nM |  |  |
| Cc1[nH]ncc1-c1cnc(N)c(OC(C)c2cc(F)ccc2F)c1 (centres unmarked) [Example 35, 3-[1-(2,5-difluorophenyl)ethoxy]-5-(5-methyl-1H-pyrazo-4-yl)pyridin-2-amine] | 5610 nM |  |  |  |
| Cc1n[nH]c(C)c1-c1cnc(N)c(OC(C)c2cc(F)ccc2-n2nccn2)c1 (centres unmarked) [Example 49, 5-(3,5-dimethyl-1H-pyrazol-4-yl)-3-{1-[5-fluoro-2-(2H-1,2,3-triazol-2-yl)phenyl]-ethoxy}pyridin-2-amine] | 13100 nM | 114 nM |  |  |
| Cc1n[nH]cc1-c1cnc(N)c(O[C@H](C)c2cc(F)ccc2C#N)c1 [Example 40, 2-[(1R)-1-{[2-amino-5-(3-methyl-1H-pyrazol-4-yl)pyridin-3-yl]oxy}ethyl]-4-fluorobenzonitrile] | 1350 nM |  |  |  |
| COc1ccc(F)cc1C(C)Oc1cc(-c2cccnc2O)cnc1N (centres unmarked) [Example 8, 6′-amino-5′-[1-(5-fluoro-2-methoxyphenyl)ethoxy]-3,3′-bipyridin-2-ol] | 17400 nM | 98.2 nM |  |  |
| Cc1n[nH]cc1-c1cnc(N)c(OC(C)c2cc(F)ccc2-n2nccn2)c1 (centres unmarked) [Example 39, 3-{1-[5-fluoro-2-(2H-1,2,3-triazol-2-yl)phenyl]-ethoxy}-5-(3-methyl-1H-pyrazol-4-yl)pyridin-2-amine] | 4500 nM |  |  |  |
| C[C@@H](Oc1cc(-c2ccnn2C)cnc1N)c1cc(F)ccc1-n1nccn1 [Example 30, 3-{(1R)-1-[5-fluoro-2-(2H-1,2,3-triazol-2-yl)phenyl]ethoxy}-5-(1-methyl-1H-pyrazol-5-yl)pyridin-2-amine] | 6110 nM |  |  |  |
| C[C@@H](Oc1cc(-c2cnnn2C)cnc1N)c1cc(F)ccc1-n1nccn1 [Example 21, 3-{(1R)-1-[5-fluoro-2-(2H-1,2,3-triazol-2-yl)phenyl]-ethoxy)-5-(1-methyl-1H-1,2,3-triazol-5-yl)pyridin-2-amine] | 14400 nM |  |  |  |
| C[C@@H](Oc1nc(-c2cccc(S(C)(=O)=O)c2)cnc1N)c1cc(F)ccc1-n1nccn1 [Example 72, 3-{(1R)-1-[5-fluoro-2-(2H-1,2,3-triazol-2-yl)phenyl]ethoxy}-5-[3-(methylsulfonyl)phen-yl]pyrazin-2-amine] |  |  | 0.24 nM | 10.4 nM |
| Cc1n[nH]cc1-c1cnc(N)c(OC(C)c2cc(F)ccc2C#N)c1 (centres unmarked) [Example 38, 2-(1-{[2-amino-5-(3-methyl-1H-pyrazol-4-yl)pyridin-3-yl]oxy}ethyl)-4-fluorobenzonitrile] | 4050 nM |  |  |  |
| COc1ncccc1-c1cnc(N)c(OC(C)c2cc(F)ccc2-n2nccn2)c1 (centres unmarked) [Example 46, 5-{1-[5-fluoro-2-(2H-1,2,3-triazol-2-yl)phenyl]-ethoxy}-2′-methoxy-3,3′-bipyridin-6-amine] | 6850 nM |  |  |  |
| CC1CNc2ncc(-c3cnc(N)c(O[C@H](C)c4cc(F)ccc4-n4nccn4)c3)cc2O1 (stereo partly drawn) [Example 79, 3-{(1R)-1-[5-fluoro-2-(2H-1,2,3-triazol-2-yl)phenyl]ethoxy}-5-(2-methyl-3,4-dihydro-2H-pyrido[3,2-b][1,4]oxazin-7-yl)pyridin-2-amine] |  |  | < 0.2 nM | 15.5 nM |
| COc1ccc(F)cc1[C@@H](C)Oc1nc(-c2ccc([C@H](C)N)cc2)cnc1N [Example 68, 5-{4-[(1S)-1-aminoethyl]phenyl}-3-[(1R)-1-(5-fluoro-2-methoxyphenyl)eth-oxy]pyrazin-2-amine] |  |  | < 0.2 nM | 4.5 nM |
| Cc1n[nH]cc1-c1cnc(N)c(O[C@H](C)c2cc(F)ccc2-n2nccn2)n1 [Example 67, 3-{(1R)-1-[5-fluoro-2-(2H-1,2,3-triazol-2-yl)phenyl]ethoxy}-5-(3-methyl-1H-pyrazol-4-yl)pyrazin-2-amine] |  |  | 0.56 nM | 40.9 nM |
| CC(Oc1cc(-c2ccnn2C)cnc1N)c1cc(F)ccc1-c1nccn1C (centres unmarked) [Example 63, 3-{1-[5-Fluoro-2-(1-methyl-1H-imidazol-2-yl)-phenyl]ethoxy}-5-(2-methyl-2H-pyrazol-3-yl)-pyridin-2-ylamine] |  |  | 67 nM | 2350 nM |

Now from value to compound:

| IC50 (cMet enzyme) | IC50 (ALK enzyme) | Ki [1] | IC50 [2] | SMILES |
| --- | --- | --- | --- | --- |
|  |  | 1.04 nM | 71.3 nM | C[C@@H](Oc1cc(-c2ccc(O)nc2)cnc1N)c1cc(F)ccc1-n1nccn1 [Example 121, 6′-amino-5′-{(1R)-1-[5-fluoro-2-(2H-1,2,3-triazol-2-yl)phenyl]ethoxy}-3,3′-bipyridin-6-ol] |
|  |  | 0.43 nM | 12.7 nM | COc1nc(CO)ccc1-c1cnc(N)c(O[C@H](C)c2cc(F)ccc2-n2nccn2)c1 [Example 93, (6′-amino-5′-{(1R)-1-[5-fluoro-2-(2H-1,2,3-triazol-2-yl)phenyl]ethoxy}-2-methoxy-3,3′-bipyridin-6-yl)methanol] |
|  |  | 0.26 nM | 8.6 nM | COc1ccc(F)cc1C(C)Oc1cc(-c2ccc(CO)c(S(C)(=O)=O)c2)cnc1N (centres unmarked) [Example 136, [4-{6-amino-5-[1-(5-fluoro-2-methoxyphenyl)ethoxy]pyridin-3-yl}-2-(methylsulfonyl)phenyl]methanol] |
|  |  | 1.2 nM | 58.9 nM | CNC(=O)c1nc(C)c(-c2cnc(N)c(O[C@H](C)c3cc(F)ccc3-n3nccn3)c2)s1 [Example 90, 5-(6-amino-5-{(1R)-1-[5-fluoro-2-(2H-1,2,3-triazol-2-yl)phenyl]ethoxy}pyridin-3-yl)-N,4-dimethyl-1,3-thiazole-2-carboxamide] |
|  |  | 2.14 nM | 161 nM | Cc1nc(C#N)c(-c2cnc(N)c(O[C@H](C)c3cc(F)ccc3-n3nccn3)c2)o1 [Example 120, 5-(6-amino-5-{(1R)-1-[5-fluoro-2-(2H-1,2,3-triazol-2-yl)phenyl]ethoxy}pyridin-3-yl)-2-methyl-1,3-oxazole-4-carbonitrile] |
|  |  | 0.26 nM | 2.25 nM | C[C@@H](Oc1cc(-c2ccnc(N3CC(O)C3)c2F)cnc1N)c1cc(F)ccc1-n1nccn1 [Example 130, 1-(6-amino-3′-fluoro-5-{(1R)-1-[5-fluoro-2-(2H-1,2,3-triazol-2-yl)phenyl]ethoxy}-3,4′-bipyridin-2′-yl)azetidin-3-ol] |
|  |  | < 0.2 nM | 4.39 nM | C[C@@H](Oc1cc(-c2ccc(CO)c(S(C)(=O)=O)c2)cnc1N)c1cc(F)ccc1-n1nccn1 [Example 119, [4-(6-amino-5-{(1R)-1-[5-fluoro-2-(2H-1,2,3-triazol-2-yl)phenyl]ethoxy}pyridin-3-yl)-2-(methylsulfonyl)phenyl]methanol] |
|  |  | < 0.2 nM | 2.04 nM | Cc1nn(C2CCNCC2)cc1-c1cnc(N)c(O[C@H](C)c2cc(F)ccc2-n2nccn2)c1 [Example 124, 3-{(1R)-1-[5-fluoro-2-(2H-1,2,3-triazol-2-yl)phenyl]ethoxy}-5-[3-methyl-1-(piperidin-4-yl)-1H-pyrazol-4-yl]pyridin-2-amine] |
|  |  | 1.3 nM | 89.6 nM | Cc1cc(-c2cnc(N)c(O[C@H](C)c3cc(F)ccc3-n3nccn3)c2)cc(P(C)(C)=O)c1 [Example 114, 5-[3-(dimethylphosphoryl)-5-methylphenyl]-3-{(1R)-1-[5-fluoro-2-(2H-1,2,3-triazol-2-yl)phenyl]ethoxy}pyridin-2-amine] |
|  |  | < 0.2 nM | 3.21 nM | COc1ccc(S(C)(=O)=O)cc1-c1cnc(N)c(O[C@H](C)c2cc(F)ccc2-n2nccn2)c1 [Example 101, 3-{(1R)-1-[5-fluoro-2-(2H-1,2,3-triazol-2-yl)phenyl]ethoxy}-5-[2-methoxy-5-(methylsulfonyl)phenyl] pyridin-2-amine] |
|  |  | 0.26 nM | 9.29 nM | COc1cc(C(N)=O)ccc1-c1cnc(N)c(O[C@H](C)c2cc(F)ccc2-n2nccn2)c1 [Example 118, 4-(6-amino-5-{(1R)-1-[5-fluoro-2-(2H-1,2,3-triazol-2-yl)phenyl]ethoxy}pyridin-3-yl)-3-methoxybenzamide] |
|  |  | < 0.2 nM | 15.9 nM | C[C@@H](Oc1cc(-c2cn([C@@H]3C[C@H]4CC[C@@H](C3)N4)nc2C#N)cnc1N)c1cc(F)ccc1-n1nccn1 [Example 140, 4-(6-amino-5-{(1R)-1-[5-fluoro-2-(2H-1,2,3-triazol-2-yl)phenyl]ethoxy}pyridin-3-yl)-1-[(3-exo)-8-azabicyclo[3.2.1]oct-3-yl]-1H-pyrazole-3-carbonitrile] |
|  |  | < 0.2 nM | 2.82 nM | Cc1nn(C2CCNC2=O)cc1-c1cnc(N)c(O[C@H](C)c2cc(F)ccc2-n2nccn2)c1 (stereo partly drawn) [Example 139, 3-[4-(6-amino-5-{(1R)-1-[5-fluoro-2-(2H-1,2,3-triazol-2-yl)phenyl]ethoxy}pyridin-3-yl)-3-methyl-1H-pyrazol-1-yl]pyrrolidin-2-one] |
